Tests used:
[1] = system: normal NK cells expanded with K562-aAPC; assay: percent inhibition of viability; higher = more inhibition; details: 72 h, IL-2 2.5 ng/mL
Description: (§1)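 Drug sensitivity and resistance testing on K562-aAPC-expanded normal NK cells: 5 concentrations (10-fold steps over a 10,000-fold range), 72 h at 37 °C, viability by CellTiter-Glo normalised to DMSO and benzethonium chloride controls; DSS from the fitted curve.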

[2] = system: DERL-7 (IL-2 2.5 ng/mL); assay: as above; details: 72 h
[3] = system: IMC-1 (IL-2 20 ng/mL); assay: as above; details: 72 h
[4] = system: KAI3 (IL-2 2.5 ng/mL); assay: as above; details: 72 h
[5] = system: KHYG-1 (IL-2 2.5 ng/mL); assay: as above; details: 72 h
[6] = system: NK-92 (IL-2 2.5 ng/mL); assay: as above; details: 72 h
[7] = system: NK-YS (IL-2 2.5 ng/mL); assay: as above; details: 72 h
[8] = system: NKL (IL-2 2.5 ng/mL); assay: as above; details: 72 h
[9] = system: SNK-6 (IL-2 2.5 ng/mL); assay: as above; details: 72 h
[10] = system: YT (IL-2 2.5 ng/mL); assay: as above; details: 72 h
[11] = system: normal primary NK cells, pool 1 (3 donors) (IL-2 2.5 ng/mL); assay: as above; details: 72 h
[12] = system: normal primary NK cells, pool 1 (3 donors), resting (IL-2 0 ng/mL); assay: as above; details: 72 h
[13] = system: normal primary NK cells, pool 2 (3 donors) (IL-2 2.5 ng/mL); assay: as above; details: 72 h
[14] = system: normal primary NK cells, pool 3 (3 donors) (IL-2 2.5 ng/mL); assay: as above; details: 72 h
[15] = system: normal NK cells expanded with K562-aAPC; assay: drug sensitivity score (DSS) (DSS units); higher = more sensitive; extreme values may be limits of the assay; details: 72 h; IL-2 2.5 ng/mL
Description: as §1

[16] = system: DERL-7 (IL-2 2.5 ng/mL); assay: as above; details: 72 h
[17] = system: IMC-1 (IL-2 20 ng/mL); assay: as above; details: 72 h
[18] = system: KAI3 (IL-2 2.5 ng/mL); assay: as above; details: 72 h
[19] = system: KHYG-1 (IL-2 2.5 ng/mL); assay: as above; details: 72 h
[20] = system: NK-92 (IL-2 2.5 ng/mL); assay: as above; details: 72 h
[21] = system: NK-YS (IL-2 2.5 ng/mL); assay: as above; details: 72 h
[22] = system: NKL (IL-2 2.5 ng/mL); assay: as above; details: 72 h
[23] = system: SNK-6 (IL-2 2.5 ng/mL); assay: as above; details: 72 h
[24] = system: YT (IL-2 2.5 ng/mL); assay: as above; details: 72 h
[25] = system: normal primary NK cells, pool 1 (3 donors) (IL-2 2.5 ng/mL); assay: as above; details: 72 h
[26] = system: normal primary NK cells, pool 1 (3 donors), resting (IL-2 0 ng/mL); assay: as above; details: 72 h
[27] = system: normal primary NK cells, pool 2 (3 donors) (IL-2 2.5 ng/mL); assay: as above; details: 72 h
[28] = system: normal primary NK cells, pool 3 (3 donors) (IL-2 2.5 ng/mL); assay: as above; details: 72 h

O=C(Nc1ccc(-c2ccnc(Nc3ccc(N4CCOCC4)cc3)n2)cc1)C1CCCN1 (stereo not given) [XL019] (max concentration tested 10000 nM)
percent inhibition of viability [%]
Details	1 nM	10 nM	100 nM	1000 nM	10000 nM
[1]	-3.5	-1.96	2.68	12.6	72
[2]	0.19	0.52	7.06	25.9	71.8
[3]	-1.28	-4.89	1.81	-0.33	61.4
[4]	-6.77	-0.02	6.51	18.2	83.2
[5]	-4.32	-2.94	2.79	6.64	81.2
[6]	1.46	-2	-6.58	-8.42	44.8
[7]	-3	-6.33	-0.83	6.03	49.6
[8]	-2.13	4.85	23.2	31.3	72.5
[9]	-2.35	-15.3	3.5	-9.49	27.1
[10]	0.46	-0.22	5.02	2.15	33.3
[11]	-9.78	0.22	-10.4	9.22	80
[12]	1.73	2.9	-4.73	19.1	61.7
[13]	-2.68	-3.46	-5.23	19.5	74.1
[14]	-1.82	6.1	-1.33	13.9	81.2

Details	drug sensitivity score
[15]	6.07
[16]	6.99
[17]	3.31
[18]	7.51
[19]	5.54
[20]	1.81
[21]	3.62
[22]	9.26
[23]	0.74
[24]	1.85
[25]	5.96
[26]	6.18
[27]	7.07
[28]	6.8

Nc1nc2[nH]cnc2c(=S)[nH]1 [Thioguanine] (max concentration tested 10000 nM)
percent inhibition of viability [%]
Details	1 nM	10 nM	100 nM	1000 nM	10000 nM
[1]	-4.14	-5.02	-5.79	6.11	56.7
[2]	-5.49	1.22	-5.6	8.62	87.2
[3]	-5.55	-1.21	-1.21	33.3	97.2
[4]	-7.74	-2.97	-0.62	15.1	78.8
[5]	-13.1	-8.14	-0.41	99.5	106
[6]	-10.2	-5.6	17.5	52.7	98.4
[7]	-7.28	-5.53	13.5	84.7	95.8
[8]	-14	-21.1	1.79	26.9	93.4
[9]	-10.4	-12.3	-12.4	52.4	96.7
[10]	-6.35	-2.99	5.94	87.9	105
[11]	2.84	12.9	10.3	6.9	52.7
[12]	1.38	16.6	9.25	15.6	37.5
[13]	-0.91	-2.84	9.06	9.05	55
[14]	-3.74	-0.43	9.27	10.8	44

Details	drug sensitivity score
[15]	4.06
[16]	6.23
[17]	10
[18]	6.83
[19]	17.9
[20]	12.4
[21]	17.2
[22]	9.15
[23]	11.7
[24]	16.8
[25]	3.98
[26]	4.42
[27]	4.48
[28]	3.64

CN(C)C1CCN(C(=O)c2ccc(NC(=O)Nc3ccc(-c4nc(N5CCOCC5)nc(N5CCOCC5)n4)cc3)cc2)CC1 [Gedatolisib] (max concentration tested 1000 nM)
percent inhibition of viability [%]
Details	0.1 nM	1 nM	10 nM	100 nM	1000 nM
[1]	-0.13	7.4	1.57	11	38
[2]	-6.47	3.75	20.5	81.6	96.8
[3]	1.19	4.03	-1.18	-2.3	34.8
[4]	-4.82	-2.02	7.1	34.4	65.2
[5]	3.45	0.68	6.16	4.39	40.9
[6]	-8.45	-9.3	7.7	-10.2	15.7
[7]	1.81	-3.05	18.4	56.5	75.3
[8]	-11	-10.7	19.5	58.6	62
[9]	13	9.94	17.4	15.5	55.6
[10]	-1.35	-2.24	7.23	19.8	61.7
[11]	4.43	-5.19	5.53	2.83	24.4
[12]	4.88	-18.3	3.45	-12.4	12.5
[13]	-16.6	-2.18	-0.9	7.29	33.2
[14]	-10.1	-4.3	-0.54	0.15	27.5

Details	drug sensitivity score
[15]	3.49
[16]	17.5
[17]	1.45
[18]	7.65
[19]	2.77
[20]	0.11
[21]	12.7
[22]	13.9
[23]	6.43
[24]	5.75
[25]	1.34
[26]	0.01
[27]	2.68
[28]	1.15

COC1=CC(c2cc3ccccc3[nH]2)=N/C1=C\c1[nH]c(C)cc1C [Obatoclax] (max concentration tested 10000 nM)
percent inhibition of viability [%]
Details	1 nM	10 nM	100 nM	1000 nM	10000 nM
[1]	0.42	2.59	3.2	6.46	21.2
[2]	-3.53	-2.23	2.25	2.35	36.5
[3]	-4.53	-1.62	-0.16	4.8	18.5
[4]	2.78	2.46	-1.6	14.8	41.8
[5]	-3.69	-0.55	0.4	15.8	35.2
[6]	-5.85	7.72	16.4	50	77.5
[7]	-4.05	-1.77	1.63	13.8	26.2
[8]	-2.53	-11.6	25.5	67.5	84.2
[9]	-0.44	6.97	-8.81	6.17	16.6
[10]	0.99	0.48	1.63	21.2	48.1
[11]	-0.48	0.81	-4.45	6.95	39.1
[12]	-9.87	-1.78	-10.3	10	59
[13]	-4.7	-5.9	5.89	6.17	37.3
[14]	-3.41	-11.5	3.42	9.76	34.5

Details	drug sensitivity score
[15]	1.2
[16]	2.1
[17]	1.04
[18]	4.2
[19]	3.67
[20]	11.6
[21]	2.34
[22]	15.6
[23]	0.94
[24]	5.06
[25]	3.07
[26]	4.87
[27]	2.84
[28]	2.91

O=C(Nc1cccnc1)N1CCC(Cc2cccc(Oc3ccc(C(F)(F)F)cn3)c2)CC1 [PF-3845] (max concentration tested 10000 nM)
percent inhibition of viability [%]
Details	1 nM	10 nM	100 nM	1000 nM	10000 nM
[1]	-4.39	-6.94	-8.54	-9.15	-10
[2]	3.63	-4.44	5.89	0.51	46.1
[3]	0.9	-0.47	4.7	13.8	26.2
[4]	-1.12	-6.82	4.46	0.3	25
[5]	-4.25	-6.89	-4.44	4.55	60.7
[6]	-1.76	-21.3	-8.96	4.25	35.6
[7]	4.37	-3.27	0.47	10.5	75
[8]	-5.58	-15.9	-8.48	16.5	66.2
[9]	-10	-1.35	-9.77	-1.56	25.3
[10]	-2.27	-9.8	1.6	5.87	44.7
[11]	-3.8	-8.73	-11.2	2.66	64.3
[12]	-8.45	-13.6	-17.7	-4.4	74
[13]	-12.4	3.71	-1.82	-3.09	43.9
[14]	-11.4	-5.5	-11.2	-10.4	19.9

Details	drug sensitivity score
[15]	0
[16]	2.45
[17]	2.22
[18]	0.99
[19]	4
[20]	2.38
[21]	5.91
[22]	6.2
[23]	0.86
[24]	3.29
[25]	3.87
[26]	3.74
[27]	2
[28]	0.32

Source: the supplement of paper PMC5908809
